Literature values as cited in patent publication US7125886B2, “5-HT3 receptor antagonists and methods of use” (Aryx Therapeutics, priority 2002, dated 2006).

Experiments:
5-HT3 receptor = target: T1, 5-HT3 receptor (Homo sapiens, UniProt P46098)
T1 sequence (P46098 24-478): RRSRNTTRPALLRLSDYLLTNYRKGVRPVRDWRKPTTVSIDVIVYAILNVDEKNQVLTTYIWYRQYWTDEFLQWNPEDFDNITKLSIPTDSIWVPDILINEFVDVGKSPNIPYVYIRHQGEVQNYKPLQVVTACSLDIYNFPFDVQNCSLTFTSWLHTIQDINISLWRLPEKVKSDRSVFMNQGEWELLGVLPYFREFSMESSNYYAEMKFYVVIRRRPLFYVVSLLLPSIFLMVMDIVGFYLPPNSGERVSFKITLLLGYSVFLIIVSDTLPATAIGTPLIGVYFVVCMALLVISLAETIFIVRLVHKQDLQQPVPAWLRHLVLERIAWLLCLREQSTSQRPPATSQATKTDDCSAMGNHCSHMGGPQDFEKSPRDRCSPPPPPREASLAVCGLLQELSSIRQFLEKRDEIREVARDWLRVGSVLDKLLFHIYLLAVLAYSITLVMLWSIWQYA

[1] = received by the FDA
[2] = up to 3 months of treatment; versus placebo and mebeverine
[3] = at least 12 weeks of treatment, patients with IBS

## Cc1[nH]cnc1CN1CCc2c(c3cccc(O)c3n2C)C1=O [6-Hydroxy-alosetron]
5-HT3 receptor
  potency relative to alosetron: twice as potent as alosetron

## Cc1[nH]cnc1CN1CCc2c(c3cccc(O[C@@H]4O[C@H](C(=O)O)[C@@H](O)[C@H](O)[C@H]4O)c3n2C)C1=O [6-OH-alosetron glucuronide]
5-HT3 receptor
  5-HT3 receptor binding affinity: potent

## Cc1[nH]cnc1CN1CCc2c(c3ccccc3n2C)C1=O [Alosetron, 2,3,4,5-tetrahydro-5-methyl-2-[(5-methyl-1H-imidazol-4-yl)methyl]-1H-pyrido [4,3-b]indol-1-one]
[1]
  reports of deaths associated with alosetron: 3
Females compared with males
  greater drug exposure in females than males: 60%
  mean peak plasma concentration higher in females: 45–100%
In vivo
  half-life: 1.5 h
oral
  oral bioavailability: approximately 60%
[2]
  improving perception of visceral pain, spasms and diarrhea: significantly superior
[3]
  constipation, patients with adverse event: 28%
